Literature values as cited in PMC10656230, “Disruption of the productive encounter complex results in dysregulation of DIAPH1 activity” (The Journal of Biological Chemistry, 2023).

Legend:
DID = settings: DAD without RRKR motif vs
Text: Chemical shifts (δ) and cross peak intensities (I) were monitored by using heteronuclear single–quantum coherence (^1H-^15N HSQC) NMR spectroscopy ([38]) (Fig. S1A). […] Negligible perturbations occurred beyond a 1:1 mole ratio, indicating a 1:1 stoichiometry for the complex. […] H ...

DID R278E = settings: DID mutation R278E, no 2- to 3-fold decrease
Text: (§1) Our findings identify E326 and E327 as critical for binding (Figs. 3D, 4 and S1). The E326 and E327 acidic patch is located greater than 30 Å away from the Rho GTPase binding site and represents a new surface for DIAPH1 regulation (Fig. S4B) ([25]). Interruption of the electrostatic interaction between the basic RRKR motif an ...

DID E273K = settings: DID mutation E273K, no 2- to 3-fold decrease
Text: as §1

DETGVMDSLLEALQSGAAFRRKRGPRQAN [DAD]
decrease in DID-DAD binding affinity on removal of the RRKR motif of DAD (DID): 5 fold | decrease in DID-DAD binding affinity (DID R278E): did not | decrease in DID-DAD binding affinity (DID E273K): did not
